Measurements: patent US20060093578A1, “Method and composition for treating multiple sclerosis” (Kyorin Pharmaceutical Co., Ltd., priority 2004, published 2006)

Experiments:
[1] = system: IL-12 p70 production by microglia; test: IL-12 p70 production by LPS + IFNγ-stimulated microglia (ELISA); format: cell-based, C57BL/6J mice; conditions: for IL-12 p70: mean ± SD (n = 9); for IL-12 production by microglia: LPS and IFNγ stimulation, graded doses (FIG. 1, FIG. 9A)
Protocol: Samples used for the experiments were prepared as described below. […] The cultures were maintained with Dulbecco's modified Eagle's minimum essential medium supplemented with 10% fetal calf serum, 5 μg/ml bovine insulin, and 0.2% glucose.
The supernatant was then collected and stored at −70° C. until assessed. From the remaining cells, total RNA was extracted, following the guanidinium thiocyanate method (RNeasy Mini Kit;QIAGEN). The cDNA encoding mouse TNFα, IL-1β, IL-6, iNOS (inducible nitric oxide synthetase), and IL-12, was generated by reverse transcription-polymerase chain reaction (RT-PCR) using Superscript II (INVITROGEN), and Ampli Taq DNA polymerase (APPLIED BIOSYSTEMS) with the specific primers shown in Table 1.
Cytokine production was measured with an ELISA kit specific for IL1, IL-6, TNFα, and IL-12 p70 (TECHNE Corp. MN). NO production was determined by Griess reaction. Briefly, a 50 μl aliquot of supernatants were mixed with an equal volume of Griess reagent (0.1% N-ethylenediarnine dihydrochloride, 1% sulfanilamide, and 2.5% phosphoric acid) and incubated for 15 minutes at room temperature, and the absorbance was read at 540 nm on a microtiter plate reader. Nitrite concentrations were calculated from a standard curve of NaNO2 (Yoshikawa M, Suzumura A, Tamaru T, et al. “Effects of phosphodiesterase inhibitors on microglia.” Multiple Scler 1999;5: 126-133, the contents of which are hereby incorporated by reference in their entirety).

[2] = system: peripheral blood mononuclear cells; conditions: with IFNβ, synergistically; PBMC from patients with active MS; clinical trial; cited from earlier work
[3] = microglia + LPS (1 μg/mL) + IFNγ (1 ng/mL) + IFNβ 10^2 U/mL, agent 1 μM
[4] = microglia + LPS (1 μg/mL) + IFNγ (1 ng/mL) + IFNβ 10^2 U/mL, agent 10 μM
[5] = microglia + LPS (1 μg/mL) + IFNγ (1 ng/mL) + IFNβ 10^2 U/mL, agent 100 μM, detection limit 7 pg/mL
[6] = microglia + LPS (1 μg/mL) + IFNγ (1 ng/mL), agent 1 μM, stimulated control 118 ± 13
[7] = microglia + LPS (1 μg/mL) + IFNγ (1 ng/mL), agent 10 μM, stimulated control 118 ± 13
[8] = microglia + LPS (1 μg/mL) + IFNγ (1 ng/mL), agent 100 μM, detection limit 7 pg/mL

CC(C)C(=O)c1c(C(C)C)nn2ccccc12 [Ibudilast, ibudilast]
IL-12 p70 [1, 3]: 48 ± 11 pg/mL
IL-12 p70 [1, 4]: 43 ± 6 pg/mL
IL-12 p70 [1, 5]: <7^a** pg/mL
IL-12 p70 [1, 6]: 53 ± 4 pg/mL
IL-12 p70 [1, 7]: 48 ± 5 pg/mL
IL-12 p70 [1, 8]: <7^a* pg/mL

Cc1[nH]c(=O)c(C#N)cc1-c1ccc2nccn2c1 [Orprinone, orprinone]
IL-12 production by microglia [1]: dose-dependently suppressed
IL-12 p70 [1, 3]: 67 ± 14 pg/mL
IL-12 p70 [1, 4]: 44 ± 7 pg/mL
IL-12 p70 [1, 5]: 40 ± 9 pg/mL
IL-12 p70 [1, 6]: 107 ± 20 pg/mL
IL-12 p70 [1, 7]: 88 ± 14 pg/mL
IL-12 p70 [1, 8]: 32 ± 11 pg/mL

CCCC(=O)Nc1ncnc2c1ncn2[C@@H]1O[C@@H]2COP(=O)(O)O[C@H]2[C@H]1OC(=O)CCC [dbcAMP, dibutyryl cAMP]
IL-12 production by microglia [1]: dose-dependently suppressed
IL-12 p70 [1, 6]: 122 ± 23 pg/mL
IL-12 p70 [1, 7]: 59 ± 18 pg/mL
IL-12 p70 [1, 8]: 23 ± 8 pg/mL

C=C[C@@]1(C)CC(=O)[C@]2(O)[C@@]3(C)[C@@H](O)CCC(C)(C)[C@@H]3[C@H](O)[C@H](OC(C)=O)[C@@]2(C)O1 [forskoline, forskolin]
IL-12 p70 [1, 3]: 47 ± 10 pg/mL
IL-12 p70 [1, 4]: 34 ± 6 pg/mL
IL-12 p70 [1, 5]: <7^a** pg/mL

CC(=O)CCCCn1c(=O)c2c(ncn2C)n(C)c1=O [pentoxifylline]
anti-inflammatory cytokine IL-10 [2]: up-regulate
production of inflammatory cytokines [2]: reduce
